Reference: PubChem BioAssay (NCI)
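How tested: cells in 96-well plates exposed to compound for 48 hours at five concentrations. The concentration for full growth arrest is given as TGI.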

Experiments:
Assay in all cases: inhibition of tumour cell growth, NCI panel, 48 h
RXF 393 renal = system: RXF 393 renal
DU-145 prostate = system: DU-145 prostate
SF-268 CNS = system: SF-268 CNS
UACC-62 melanoma = system: UACC-62 melanoma
OVCAR-8 ovarian = system: OVCAR-8 ovarian
T-47D breast = system: T-47D breast
M14 melanoma = system: M14 melanoma
786-0 renal = system: 786-0 renal
OVCAR-4 ovarian = system: OVCAR-4 ovarian
SF-539 CNS = system: SF-539 CNS
SK-MEL-28 melanoma = system: SK-MEL-28 melanoma
HT29 colon = system: HT29 colon
MOLT-4 leukemia = system: MOLT-4 leukemia
NCI-H460 lung = system: NCI-H460 lung
SK-MEL-2 melanoma = system: SK-MEL-2 melanoma
HCT-116 colon = system: HCT-116 colon
K-562 leukemia = system: K-562 leukemia
MCF7 breast = system: MCF7 breast
NCI-H522 lung = system: NCI-H522 lung
TK-10 renal = system: TK-10 renal
MDA-MB-435 = system: MDA-MB-435
U251 CNS = system: U251 CNS
A498 renal = system: A498 renal
SK-OV-3 ovarian = system: SK-OV-3 ovarian
OVCAR-5 ovarian = system: OVCAR-5 ovarian
MDA-MB-231 breast = system: MDA-MB-231 breast
UO-31 renal = system: UO-31 renal
PC-3 prostate = system: PC-3 prostate
CAKI-1 renal = system: CAKI-1 renal
SNB-19 CNS = system: SNB-19 CNS
A549 NSCLC = system: A549 NSCLC
SF-295 CNS = system: SF-295 CNS
COLO 205 colon = system: COLO 205 colon
HOP-62 NSCLC = system: HOP-62 NSCLC
MDA-N = system: MDA-N
SK-MEL-5 melanoma = system: SK-MEL-5 melanoma
OVCAR-3 ovarian = system: OVCAR-3 ovarian
ACHN renal = system: ACHN renal
SW-620 colon = system: SW-620 colon
NCI/ADR-RES ovarian = system: NCI/ADR-RES ovarian
KM12 colon = system: KM12 colon
SN12C renal = system: SN12C renal
NCI-H23 lung = system: NCI-H23 lung
UACC-257 melanoma = system: UACC-257 melanoma
LOX IMVI melanoma = system: LOX IMVI melanoma
EKVX NSCLC = system: EKVX NSCLC
NCI-H226 lung = system: NCI-H226 lung
HCC-2998 colon = system: HCC-2998 colon
RPMI-8226 leukemia = system: RPMI-8226 leukemia
HS 578T breast = system: HS 578T breast
SR leukemia = system: SR leukemia
HL-60(TB) leukemia = system: HL-60(TB) leukemia
BT-549 breast = system: BT-549 breast
IGROV1 ovarian = system: IGROV1 ovarian
HOP-92 NSCLC = system: HOP-92 NSCLC
HCT-15 colon = system: HCT-15 colon
MALME-3M melanoma = system: MALME-3M melanoma
CCRF-CEM leukemia = system: CCRF-CEM leukemia
SNB-75 CNS = system: SNB-75 CNS

Measured: TGI

CNC(=O)CNC(=O)CCC(=O)OC
not listed: UACC-257 melanoma | LOX IMVI melanoma | EKVX NSCLC | NCI-H226 lung | HCC-2998 colon | RPMI-8226 leukemia | HS 578T breast | SR leukemia | HL-60(TB) leukemia | BT-549 breast | IGROV1 ovarian | HOP-92 NSCLC | HCT-15 colon | MALME-3M melanoma | CCRF-CEM leukemia | SNB-75 CNS
> 100 µM: all other assays above

COc1ccc([C@H]2[C@H](C)C3=Nc4ccccc4CN32)cc1
47.2 µM: MDA-N
not listed: T-47D breast | SK-OV-3 ovarian | CCRF-CEM leukemia | SNB-75 CNS
> 100 µM: all other assays above

CCOP(=O)(OCC)/C(C#N)=C/c1coc2cc(C)cc(C)c2c1=O
not listed: RXF 393 renal | T-47D breast | SF-539 CNS | TK-10 renal | HCT-15 colon
> 100 µM: all other assays above
